According to ChEMBL document CHEMBL3734654, “Mutational mapping of the transmembrane binding site of the G-protein coupled receptor TGR5 and binding mode prediction of TGR5 agonists” (Eur J Med Chem, 2015):
The source made the active and inactive calls. The rule behind the calls is not given here.

Tested on: T1, G-protein coupled bile acid receptor 1 (Homo sapiens), Q8TDU6 [E169A]
T1 sequence (whole entry): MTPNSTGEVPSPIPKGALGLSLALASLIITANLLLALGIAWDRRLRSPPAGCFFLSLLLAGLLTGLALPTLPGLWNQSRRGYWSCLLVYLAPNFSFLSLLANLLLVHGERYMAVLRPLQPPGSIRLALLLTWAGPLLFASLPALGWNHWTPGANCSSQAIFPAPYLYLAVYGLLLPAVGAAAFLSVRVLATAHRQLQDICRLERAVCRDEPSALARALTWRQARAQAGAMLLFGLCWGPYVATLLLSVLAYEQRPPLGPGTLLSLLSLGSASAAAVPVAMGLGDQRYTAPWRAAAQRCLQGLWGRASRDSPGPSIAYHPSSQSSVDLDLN
Experiment: Agonist activity at human TGR5 E169A mutant expressed in HEK293 cells assessed as rise in intracellular cAMP level at 10 uM incubated for 16 hrs by luciferase reporter assay relative to wild type
Format: functional, cell-based

In the case of C=C[C@@]1(C)CC(=O)[C@]2(O)[C@@]3(C)[C@@H](O)CCC(C)(C)[C@@H]3[C@H](O)[C@H](OC(C)=O)[C@@]2(C)O1, the Activity is reported as “Active”.
